Laboratory results reported in patent US12281122B1, “PI3K inhibitors” (Cogent Biosciences, Inc., priority 2023, dated 2025).

Assays:
[1] = system: T47D (PI3Kα-H1047R) cell line; experiment: HTRF phospho-AKT(S473) cell assay in T47D cells; format: cell-based, human
In short: (§1)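 pAKT(S473) in lysates read by HTRF after a 2 h, 37 °C compound exposure (12-point 1:3 series, max 0.5% DMSO). SKBR3 (wild type, top 10 μM) received 70 ng/ml PDGF-BB during the final 15 min; T47D (H1047R, top 5 μM) was unstimulated. IC50 values derived from the dose-response.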

[2] = system: SKBR3 (PI3Kα-Wild Type) cell line; experiment: HTRF phospho-AKT(S473) cell assay in SKBR3 cells; format: cell-based, human
In short: as §1

[3] = Homo sapiens; T47D (PI3Kα-H1047R) cells, HTRF phospho-AKT(S473), 2 hours compound incubation
[4] = Homo sapiens, SK-BR-3; SKBR3 (PI3Kα-Wild Type) cells, HTRF phospho-AKT(S473), 2 hours compound incubation, PDGF-BB stimulated
[5] = Homo sapiens; HTRF phospho-AKT(S473), T47D (PI3Kα-H1047R) cells, 2 hours compound incubation
[6] = Homo sapiens, SK-BR-3; HTRF phospho-AKT(S473), SKBR3 (PI3Kα-Wild Type) cells, 2 hours compound incubation, PDGF-BB stimulated

IC50 [1, 3] | IC50 [2, 4] | IC50 [1, 5] | IC50 [2, 6] | Structure (SMILES)
250 to 500 nM | ≥ 5000 nM | – | – | Cc1cc([C@@H](C)Nc2ccc(Cl)nc2C(=O)NS(C)(=O)=O)c2nc(N3CCC[C@H](Oc4cnccn4)C3)n(C)c(=O)c2c1 [Compound 377, 6-chloro-3-(((R)-1-(3,6-dimethyl-4-oxo-2-((S)-3-(pyrazin-2-yloxy)piperidin-1-yl)-3,4-dihydroquinazolin-8-yl)ethyl)amino)-N-(methylsulfonyl) picolinamide]
– | – | < 250 nM | 1000 to 5000 nM | Cc1cc([C@@H](C)Nc2ccc(Cl)nc2C(=O)NS(C)(=O)=O)c2nc(-c3ccc(Oc4cnn(C)c4)nc3)n(C)c(=O)c2c1 [Compound 816, (R)-6-chloro-3-((1-(3,6-dimethyl-2-(6-((1-methyl-1H-pyrazol-4-yl)oxy)pyridin-3-yl)-4-oxo-3,4-dihydroquinazolin-8-yl)ethyl)amino)-N-(methylsulfonyl) picolinamide]
< 250 nM | 1000 to 5000 nM | – | – | Cc1cc([C@@H](C)Nc2ccc(Cl)nc2C(=O)NS(C)(=O)=O)c2nc(N3CCc4nn(C)cc4C3)n(C)c(=O)c2c1 [Compound 286, (R)-6-chloro-3-((1-(3,6-dimethyl-2-(2-methyl-2,4,6,7-tetrahydro-5H-pyrazolo[4,3-c]pyridin-5-yl)-4-oxo-3,4-dihydroquinazolin-8-yl)ethyl)amino)-N-(methylsulfonyl) picolinamide]
250 to 500 nM | 1000 to 5000 nM | – | – | Cc1cc([C@@H](C)Nc2ccc(Cl)nc2C(=O)NS(C)(=O)=O)c2nc(N3CCC(c4n[nH]cc4F)CC3)n(C)c(=O)c2c1 [Compound 420, (R)-6-chloro-3-((1-(2-(4-(4-fluoro-1H-pyrazol-3-yl)piperidin-1-yl)-3,6-dimethyl-4-oxo-3,4-dihydroquinazolin-8-yl)ethyl)amino)-N-(methylsulfonyl) picolinamide]
< 250 nM | 1000 to 5000 nM | – | – | Cc1cc([C@@H](C)Nc2ccc(Cl)nc2C(=O)NS(C)(=O)=O)c2nc(N3C[C@@H]4[C@H](C3)[C@H]4n3nccc3C)n(C)c(=O)c2c1 [Compound 417, 6-chloro-3-(((R)-1-(3,6-dimethyl-2-((1R,5S,6S)-6-(5-methyl-1H-pyrazol-1-yl)-3-azabicyclo[3.1.0]hexan-3-yl)-4-oxo-3,4-dihydroquinazolin-8-yl)ethyl)amino)-N-(methylsulfonyl) picolinamide]
< 250 nM | ≥ 5000 nM | – | – | Cc1cc([C@@H](C)Nc2ccc(Cl)nc2C(=O)NS(C)(=O)=O)c2nc(N3CCC(c4cccn(C)c4=O)CC3)n(C)c(=O)c2c1 [Compound 348, (R)-6-chloro-3-((1-(3,6-dimethyl-2-(4-(1-methyl-2-oxo-1,2-dihydropyridin-3-yl)piperidin-1-yl)-4-oxo-3,4-dihydroquinazolin-8-yl)ethyl)amino)-N-(methylsulfonyl) picolinamide]
– | – | 250 to 500 nM | 1000 to 5000 nM | Cc1cc([C@@H](C)Nc2ccc(Cl)nc2C(=O)NS(C)(=O)=O)c2nc(C3CCN(c4ncc(C#N)cc4C)CC3)n(C)c(=O)c2c1 [Compound 837, (R)-6-chloro-3-((1-(2-(1-(5-cyano-3-methylpyridin-2-yl)piperidin-4-yl)-3,6-dimethyl-4-oxo-3,4-dihydroquinazolin-8-yl)ethyl)amino)-N-(methylsulfonyl) picolinamide]
– | – | 250 to 500 nM | ≥ 5000 nM | Cc1cc([C@@H](C)Nc2ccc(Cl)nc2C(=O)NS(C)(=O)=O)c2nc(N3CC[C@H](c4ccc(C)nc4)C3)n(C)c(=O)c2c1 (relative stereo) [Compound 660, 6-chloro-3-(((R)-1-(3,6-dimethyl-2-((R*)-3-(6-methylpyridin-3-yl)pyrrolidin-1-yl)-4-oxo-3,4-dihydroquinazolin-8-yl)ethyl)amino)-N-(methylsulfonyl) picolinamide]
< 250 nM | 1000 to 5000 nM | – | – | Cc1cc([C@@H](C)Nc2ccc(Cl)nc2C(=O)NS(C)(=O)=O)c2nc(-c3ccc(Nc4ccn(C)n4)nc3)n(C)c(=O)c2c1 [Compound 339, (R)-6-chloro-3-((1-(3,6-dimethyl-2-(6-((1-methyl-1H-pyrazol-3-yl)amino)pyridin-3-yl)-4-oxo-3,4-dihydroquinazolin-8-yl)ethyl)amino)-N-(methylsulfonyl) picolinamide]
250 to 500 nM | 1000 to 5000 nM | – | – | COc1cccnc1-n1cc2c(n1)CN(c1nc3c([C@@H](C)Nc4ccc(Cl)nc4C(=O)NS(C)(=O)=O)cc(C)cc3c(=O)n1C)C2 [Compound 327, (R)-6-chloro-3-((1-(2-(2-(3-methoxypyridin-2-yl)-2,6-dihydropyrrolo[3,4-c]pyrazol-5(4H)-yl)-3,6-dimethyl-4-oxo-3,4-dihydroquinazolin-8-yl)ethyl)amino)-N-(methylsulfonyl) picolinamide]
< 250 nM | ≥ 5000 nM | – | – | Cc1cc([C@@H](C)Nc2ccc(Cl)nc2C(=O)NS(C)(=O)=O)c2nc(N3CCO[C@@H](c4cnn(C)c4)C3)n(C)c(=O)c2c1 (relative stereo) [Compound 314, 6-chloro-3-(((R)-1-(3,6-dimethyl-2-((R*)-2-(1-methyl-1H-pyrazol-4-yl)morpholino)-4-oxo-3,4-dihydroquinazolin-8-yl)ethyl)amino)-N-(methylsulfonyl) picolinamide]
< 250 nM | 1000 to 5000 nM | – | – | Cc1cc([C@@H](C)Nc2ccc(Cl)nc2C(=O)NS(C)(=O)=O)c2nc(N3CCC(c4nn(C)cc4F)CC3)n(C)c(=O)c2c1 [Compound 247, (R)-6-chloro-3-((1-(2-(4-(4-fluoro-1-methyl-1H-pyrazol-3-yl)piperidin-1-yl)-3,6-dimethyl-4-oxo-3,4-dihydroquinazolin-8-yl)ethyl)amino)-N-(methylsulfonyl) picolinamide]
< 250 nM | 1000 to 5000 nM | – | – | Cc1cc([C@@H](C)Nc2ccc(Cl)nc2C(=O)NS(C)(=O)=O)c2nc(N3C[C@@H]4[C@H](C3)[C@H]4c3cn(C)nn3)n(C)c(=O)c2c1 [Compound 387, 6-chloro-3-(((R)-1-(3,6-dimethyl-2-((1R,5S,6R)-6-(1-methyl-1H-1,2,3-triazol-4-yl)-3-azabicyclo[3.1.0]hexan-3-yl)-4-oxo-3,4-dihydroquinazolin-8-yl)ethyl)amino)-N-(methylsulfonyl) picolinamide]
– | – | 250 to 500 nM | ≥ 5000 nM | Cc1cc([C@@H](C)Nc2ccc(Cl)nc2C(=O)NS(C)(=O)=O)c2nc(-c3ccc(-c4ncc(C#N)cc4C)c(F)c3)n(C)c(=O)c2c1 [Compound 799, (R)-6-chloro-3-((1-(2-(4-(5-cyano-3-methylpyridin-2-yl)-3-fluorophenyl)-3,6-dimethyl-4-oxo-3,4-dihydroquinazolin-8-yl)ethyl)amino)-N-(methylsulfonyl) picolinamide]
– | – | 500 to 1000 nM | ≥ 5000 nM | Cc1cc([C@@H](C)Nc2ccc(Cl)nc2C(=O)NS(C)(=O)=O)c2nc([C@H]3[C@@H]4CN(c5ncc(F)cn5)C[C@@H]43)n(C)c(=O)c2c1 [Compound 827, 6-chloro-3-(((R)-1-(2-((1R,5S,6r)-3-(5-fluoropyrimidin-2-yl)-3-azabicyclo[3.1.0]hexan-6-yl)-3,6-dimethyl-4-oxo-3,4-dihydroquinazolin-8-yl)ethyl)amino)-N-(methylsulfonyl) picolinamide]
– | – | 250 to 500 nM | ≥ 5000 nM | Cc1cc([C@@H](C)Nc2ccc(Cl)nc2C(=O)NS(C)(=O)=O)c2nc(N3CCC(c4nn(C)cc4Cl)CC3)n(C)c(=O)c2c1 [Compound 702, (R)-6-chloro-3-((1-(2-(4-(4-chloro-1-methyl-1H-pyrazol-3-yl)piperidin-1-yl)-3,6-dimethyl-4-oxo-3,4-dihydroquinazolin-8-yl)ethyl)amino)-N-(methylsulfonyl) picolinamide]
250 to 500 nM | ≥ 5000 nM | – | – | Cc1cc([C@@H](C)Nc2ccc(Cl)nc2C(=O)NS(C)(=O)=O)c2nc(N3CCC[C@@H](Oc4cncnc4)C3)n(C)c(=O)c2c1 [Compound 360, 6-chloro-3-(((R)-1-(3,6-dimethyl-4-oxo-2-((R)-3-(pyrimidin-5-yloxy)piperidin-1-yl)-3,4-dihydroquinazolin-8-yl)ethyl)amino)-N-(methylsulfonyl) picolinamide]
250 to 500 nM | 1000 to 5000 nM | – | – | Cc1cc([C@@H](C)Nc2ccc(Cl)nc2C(=O)NS(C)(=O)=O)c2nc(N3C[C@H]4C[C@@H](c5cnn(C)c5)[C@@H]3C4)n(C)c(=O)c2c1 [Compound 321, 6-chloro-3-(((R)-1-(3,6-dimethyl-2-((1S,4S,6RS)-6-(1-methyl-1H-pyrazol-4-yl)-2-azabicyclo[2.2.1]heptan-2-yl)-4-oxo-3,4-dihydroquinazolin-8-yl)ethyl)amino)-N-(methylsulfonyl) picolinamide]
– | – | 250 to 500 nM | ≥ 5000 nM | Cc1cc([C@@H](C)Nc2ccc(Cl)nc2C(=O)NS(C)(=O)=O)c2nc(N3C[C@@H]4[C@H](C3)[C@H]4c3ccnc(N(C)C)c3)n(C)c(=O)c2c1 [Compound 745, 6-chloro-3-(((R)-1-(2-((1R,5S,6S)-6-(2-(dimethylamino)pyridin-4-yl)-3-azabicyclo[3.1.0]hexan-3-yl)-3,6-dimethyl-4-oxo-3,4-dihydroquinazolin-8-yl)ethyl)amino)-N-(methylsulfonyl) picolinamide]

Structure (SMILES) | IC50 [1, 3] | IC50 [2, 4] | IC50 [1, 5] | IC50 [2, 6]
Cc1cc([C@@H](C)Nc2ccc(Cl)nc2C(=O)NS(C)(=O)=O)c2nc(N3[C@@H]4CC[C@H]3C[C@@H](c3cnc(C)nc3)C4)n(C)c(=O)c2c1 [Compound 299, 6-chloro-3-(((R)-1-(3,6-dimethyl-2-((1R,3R,5S)-3-(2-methylpyrimidin-5-yl)-8-azabicyclo[3.2.1]octan-8-yl)-4-oxo-3,4-dihydroquinazolin-8-yl)ethyl)amino)-N-(methylsulfonyl) picolinamide] | < 250 nM | 1000 to 5000 nM | – | –
